Source: patent US20060293388A1, “Pomolic acid, its isomers, derivatives and their uses, pharmaceutical composition, method to prepare the pharmaceutical composition and method for treating multidrug resistant tumours” (UNIVERSIDADE FEDERAL DO RIO DE JANEIRO, priority 2003, published 2006)

Legend:
[1] = tested on: leukaemic cell line K562; test: Inhibition of cellular proliferation, 3H-thymidine incorporation, K562; format: cell-based; conditions: 1, 10 and 100 μg/ml, 48 hours, FIG. 1, dose-dependent
Description: FIG. 1 describes the inhibition of proliferation of the leukaemic cell line K562 by pomolic acid. […] The values represent the mean±standard error of three independent experiments. The inhibition of cellular proliferation was measured through the incorporation of radioactive thimidine (3H-TdR). For this, 180 μl of the cell suspensions are delivered in wells of a 96 wells culture microtiter plate, 2×10^4 cells/well, followed by incubation in a CO2 incubator, at 37° C. for 24 h. After this period, 20 μl of RPMI (control) or the drug to be tested at the concentrations of 100 μg/ml, 50 μg/ml, 25 μg/ml, 10 μg/ml and 1 μg/ml, are added to each group of four wells. Some wells, to be used as controls, receive 20 μl of DMSO in the same concentrations carried by the drugs. Eight hours before the end of the culture, the plate received a pulse of radioactive thymidine (1 μCi/well) and radioactivity was measured in a β counter. The percentage of inhibition was calculated taking as a reference cell growth in the presence of DMSO.

[2] = tested on: A549 (lung cancer); test: Cytotoxicity, A549; format: cell-based
Excerpt: (§1) The evaluation of the capacity of pomolic acid, its isomers and derivatives of killing tumor cells will be performed in vitro by the MTT method. The MTT method (3-4,5-dimethylthiazol-2yl)-2,5-diphenyltetrazolium bromide), that is based on the reduction of this compound to Formazam by the enzyme NADH dehydrogenase, Mosmann 1983, allows the quantification of the number of viable cells after treatment. For this, cells from the different cell lines will be processed as described above, distributed into plates and treated with the drug desired concentrations (1, 5, 10, 25, 50 or 100 μg/ml) or DMSO. After 48 h, 20 μl of MTT (5 mg/ml) will be added to each well and the plate will be incubated for a further 4 h in an incubator at 37° C. Following centrifugation, the formazan crystals will be dissolved with DMSO (200 μl/well) and the reading of the absorbance will be made in an ELISA reader at 570 nm wavelength. The percentage of inhibition of cellular viability will be calculated using as reference cells treated with DMSO.
(§2) Pomolic's acid activity was evaluated on cells sensitive to chemotherapeutic agents, such as leukaemic lines (K562 and HL-60), of lung cancer (A549) and throat (HEp-2), and on multidrug resistant of leukaemic origin (Lucena 1), of colon cancer (CaCo-2) and of monkey kidney (MA104). […]

[3] = tested on: HEp-2 (throat cancer); test: Cytotoxicity, HEp-2; format: cell-based
Excerpt: as §1, §2

[4] = tested on: MA104 cells; test: Cytotoxicity, MTT method, MA104; format: cell-based, monkey; conditions: 1-100 μg/ml, 48 h, FIGS. 7 and 8
Description: Ma104 cells were treated with 1, 5, 10, 25, 50 and 100 μg/ml of pomolic acid for 48 hours. The values represent the mean±standard error of three independent experiments.
as §1
(§3) For this 180 μl of the cell suspension (CaCo-2 or MA104) will be delivered to wells in a 96 wells microtiter plate, 2×10^4 cells/well, and the plate incubated in a CO2 incubator at 37° C. for 24 h. […]

[5] = tested on: HL-60 cells; test: Cytotoxicity, MTT method, HL-60; format: cell-based; conditions: 1-100 μg/ml, 48 hours, FIG. 5
Description: HL-60 cells were treated with 1, 5, 10, 25, 50 and 100 μg/ml of pomolic acid for 48 hours. The values represent the mean±standard error of three independent experiments.
as §1

[6] = tested on: CaCo-2 cells; test: Cytotoxicity, MTT method, CaCo-2; format: cell-based; conditions: 1-100 μg/ml, 48 h, FIGS. 6 and 8
Description: Caco-2 cells were treated with 1, 5, 10, 25, 50 and 100 μg/ml of pomolic acid for 48 hours. The values represent the mean±standard error of three independent experiments.
as §1, §3

[7] = tested on: resistant leukaemia cell line Lucena 1; test: Inhibition of cellular proliferation, 3H-thymidine incorporation, Lucena 1; format: cell-based
Description: The values represent the mean±standard error of three independent experiments. […] The values represent the mean±standard error of three independent experiments. The inhibition of cellular proliferation was measured through the incorporation of radioactive thimidine (3H-TdR). For this, 180 μl of the cell suspensions are delivered in wells of a 96 wells culture microtiter plate, 2×10^4 cells/well, followed by incubation in a CO2 incubator, at 37° C. for 24 h. After this period, 20 μl of RPMI (control) or the drug to be tested at the concentrations of 100 μg/ml, 50 μg/ml, 25 μg/ml, 10 μg/ml and 1 μg/ml, are added to each group of four wells. Some wells, to be used as controls, receive 20 μl of DMSO in the same concentrations carried by the drugs. Eight hours before the end of the culture, the plate received a pulse of radioactive thymidine (1 μCi/well) and radioactivity was measured in a β counter. The percentage of inhibition was calculated taking as a reference cell growth in the presence of DMSO. […] The experimental design was the same one as described in example 1.

[8] = tested on: K562 cells; test: DNA fragmentation (apoptosis induction) by propidium iodide flow cytometry; format: cell-based; conditions: 18 h, mean ± SD of 3 experiments
Description: The effect of pomolic acid over DNA fragmentation was studied through the analysis of the cell cycle by flow cytometry. For this 90 μl of cells (2.5×10^5 cells/well) will be distributed in 96 well plates to which it will be added 10 μl of medium, DMSO or the drugs under test (10, 25, 50 and 100 μg/ml). After the defined period of time the cells will be harvested and spun down at 240 g for 5 min. The pellet will be resuspended in 300 μl of a HFS solution (HFS: 0.1% of Triton x-100, 0.1% of sodium citrate and 50 μg/ml of propidium iodide) and incubated at 4° C. for 1 h, in the absence of light. The samples will be read in a flow cytometer (Becton and Dikinson) using the FL2 channel.
The K562 cells were treated with 10, 25, 50 and 100 μg/ml of pomolic acid for 18 h, lysed by HFS treatment (that contains propidium iodide) and DNA fragmentation was measured by FACS (flow cytometry). The values represent the mean±SD of three independent experiments.

[9] = tested on: Lucena 1; test: Growth/survival of Lucena 1 cells under vincristine and efflux pump modulators; format: cell-based
Description: A possible reverser activity of pomolic acid was evaluated by testing its effect over Lucena 1 cell line, that over expresses P glycoprotein (Pgp).

[10] = tested on: K562; test: Growth/survival of K562 cells under vincristine and efflux pump modulators; format: cell-based

C[C@@H]1CC[C@]2(C(=O)O)CC[C@]3(C)C(=CC[C@@H]4[C@@]5(C)CC[C@H](O)C(C)(C)[C@@H]5CC[C@]43C)[C@@H]2[C@]1(C)O [pomolic acid]
inhibition of proliferation of K562 [1]: inhibits | cytotoxic activity towards A549 [2]: shows a cytotoxic activity | cytotoxic activity towards HEp-2 [3]: shows a cytotoxic activity | cytotoxic activity towards MA104 [4]: shows a cytotoxic activity | cytotoxic activity towards HL-60 [5]: shows a cytotoxic activity | cytotoxic activity towards CaCo-2 [6]: shows a cytotoxic activity | inhibition of proliferation of Lucena ([7]; 1, 10 and 100 μg/ml, 48 hours, FIGS. 2 and 3, dose-dependent): inhibits | inhibition of Lucena 1 growth in the presence of vincristine ([7]; FIG. 2, 48 hours): inhibits Lucena's 1 growth in the presence of vincristine | killing of Lucena 1 in the absence of vincristine ([7]; FIG. 3, 48 hours): kills Lucena 1 in the absence of vincristine | Pgp substrate ([7]; concluded from activity on Pgp over-expressing Lucena 1 without vincristine): not a Pgp substrate | Percentage of DNA fragmentation in K562 cells ([8]; 10 μg/ml): 4.31 ± 1.21% | Percentage of DNA fragmentation in K562 cells ([8]; 25 μg/ml): 13.72 ± 0.52% | Percentage of DNA fragmentation in K562 cells ([8]; 50 μg/ml): 29.93 ± 2.74% | Percentage of DNA fragmentation in K562 cells ([8]; 100 μg/ml): 74.88 ± 5.69%

CC[C@]1(O)C[C@H]2CN(CCc3c([nH]c4ccccc34)[C@@](C(=O)OC)(c3cc4c(cc3OC)N(C=O)[C@H]3[C@@](O)(C(=O)OC)[C@H](OC(C)=O)[C@]5(CC)C=CCN6CC[C@]43[C@@H]65)C2)C1 [VCR, vincristine]
percentage of survival in relation to the untreated control, Lucena ([9]; Table 2, 3.75 nM): 106.6 ± 3.8% | percentage of survival in relation to the untreated control, Lucena ([9]; Table 2, 7.5 nM): 98.4 ± 1.9% | percentage of survival in relation to the untreated control, Lucena ([9]; Table 2, 15 nM): 97.4 ± 6.3% | percentage of survival in relation to the untreated control, Lucena ([9]; Table 2, 30 nM): 99.5 ± 6.5% | percentage of survival in relation to the untreated control, Lucena ([9]; Table 2, 60 nM): 97.8 ± 3.7% | percentage of survival, Lucena ([9]; Table 3, VCR 60 nM): 105.3 ± 7.3% | percentage of survival in relation to the untreated control, K562 ([10]; Table 2, 3.75 nM): 76 ± 7.8% | percentage of survival in relation to the untreated control, K562 ([10]; Table 2, 7.5 nM): 70.1 ± 11.8% | percentage of survival in relation to the untreated control, K562 ([10]; Table 2, 15 nM): 29.7 ± 7.7% | percentage of survival in relation to the untreated control, K562 ([10]; Table 2, 30 nM): 10 ± 2.9% | percentage of survival in relation to the untreated control, K562 ([10]; Table 2, 60 nM): 4.9 ± 3.1% | percentage of survival, K562 ([10]; Table 3, VCR 60 nM): 3.1 ± 1.5%
